Data from article PMC5458052 (Nature Communications, 2017).
Where “and” joins values, the source holds several entries; their conditions need not be identical. Equal values may be shown once. Entries after “also recorded” stand apart in the source; their conditions may differ. Read-outs that look alike come from different tables or passages of the source.

Experiments:
[1] = tested on: P. falciparum 3D7; experiment: In vitro antimalarial activity, drug sensitivity testing (3D7); type: cell-based; details: Plasmodium falciparum
[2] = tested on: P. berghei; design: species or system Plasmodium berghei
[3] = Mammalian cell cytotoxicity; type: cell-based; details: human; HeLa cells, n=3; read-out: cytotoxicity median IC50
[4] = tested on: P. falciparum clinical field isolates; experiment: microbe, parasite or virus in culture; type: cell-based; details: Plasmodium falciparum, read-out: Median IC50
[5] = tested on: P. vivax clinical field isolates; experiment: microbe, parasite or virus in culture; type: cell-based; details: Plasmodium vivax, read-out: Median IC50
[6] = tested on: P. falciparum lab lines FC27 and K1; experiment: microbe, parasite or virus in culture; type: cell-based; details: Plasmodium falciparum, median of 3 independent experiments
[7] = tested on: Late stage gametocytes; oocysts in Anopheles stephensi mosquitoes; experiment: whole plant or invertebrate; type: cell-based
[8] = tested on: P. falciparum strain 3D7A; experiment: In vitro parasite reduction ratio (PRR) assay; type: cell-based, Plasmodium falciparum
[9] = tested on: P. falciparum K13 wild-type and mutant lines (Cam3.II, V1/S); experiment: microbe, parasite or virus in culture; type: cell-based, Plasmodium falciparum; details: read-out: IC50 Mean
[10] = tested on: P. falciparum strain 3D7^0087/N9; experiment: Humanized SCID mouse model of P. falciparum; type: in vivo, Plasmodium falciparum
[11] = Human PK prediction by allometric scaling; details: allometric scaling from rat parameters
[12] = Metabolic stability and metabolite profile in rat liver microsomes; type: in vitro ADME
[13] = Metabolic stability and metabolite profile in mouse liver microsomes; type: in vitro ADME
[14] = Metabolic stability in dog liver microsomes; type: in vitro ADME; details: substrate 1 µM
[15] = target: T1, Sigma 1 receptors (Homo sapiens, UniProt Q99720); experiment: CEREP radioligand binding screen, Sigma 1
T1 construct: CEREP
T1 sequence (Q99720 whole entry): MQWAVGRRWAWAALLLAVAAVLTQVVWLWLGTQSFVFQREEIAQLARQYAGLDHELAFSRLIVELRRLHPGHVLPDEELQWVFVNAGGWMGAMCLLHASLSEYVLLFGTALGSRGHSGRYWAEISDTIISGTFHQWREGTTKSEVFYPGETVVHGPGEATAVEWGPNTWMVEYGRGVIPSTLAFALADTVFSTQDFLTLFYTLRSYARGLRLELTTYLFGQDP

[16] = target: T2, Sigma 2 receptors (Homo sapiens, UniProt Q5BJF2); experiment: CEREP radioligand binding screen, Sigma 2
T2 construct: CEREP
T2 sequence (Q5BJF2 whole entry): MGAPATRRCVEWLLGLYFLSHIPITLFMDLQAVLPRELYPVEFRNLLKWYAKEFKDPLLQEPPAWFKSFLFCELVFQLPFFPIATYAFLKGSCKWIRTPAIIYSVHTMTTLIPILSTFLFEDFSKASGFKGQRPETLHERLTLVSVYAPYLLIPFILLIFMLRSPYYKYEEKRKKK

[17] = target: T3, cardiac IKr (hERG) channel (Homo sapiens, UniProt Q12809); experiment: hERG electrophysiology assay (IonWorks HT, CHO cells); type: cell-based
T3 construct: expressed in transfected cells; host or cells: CHO cells
T3 sequence (Q12809 whole entry): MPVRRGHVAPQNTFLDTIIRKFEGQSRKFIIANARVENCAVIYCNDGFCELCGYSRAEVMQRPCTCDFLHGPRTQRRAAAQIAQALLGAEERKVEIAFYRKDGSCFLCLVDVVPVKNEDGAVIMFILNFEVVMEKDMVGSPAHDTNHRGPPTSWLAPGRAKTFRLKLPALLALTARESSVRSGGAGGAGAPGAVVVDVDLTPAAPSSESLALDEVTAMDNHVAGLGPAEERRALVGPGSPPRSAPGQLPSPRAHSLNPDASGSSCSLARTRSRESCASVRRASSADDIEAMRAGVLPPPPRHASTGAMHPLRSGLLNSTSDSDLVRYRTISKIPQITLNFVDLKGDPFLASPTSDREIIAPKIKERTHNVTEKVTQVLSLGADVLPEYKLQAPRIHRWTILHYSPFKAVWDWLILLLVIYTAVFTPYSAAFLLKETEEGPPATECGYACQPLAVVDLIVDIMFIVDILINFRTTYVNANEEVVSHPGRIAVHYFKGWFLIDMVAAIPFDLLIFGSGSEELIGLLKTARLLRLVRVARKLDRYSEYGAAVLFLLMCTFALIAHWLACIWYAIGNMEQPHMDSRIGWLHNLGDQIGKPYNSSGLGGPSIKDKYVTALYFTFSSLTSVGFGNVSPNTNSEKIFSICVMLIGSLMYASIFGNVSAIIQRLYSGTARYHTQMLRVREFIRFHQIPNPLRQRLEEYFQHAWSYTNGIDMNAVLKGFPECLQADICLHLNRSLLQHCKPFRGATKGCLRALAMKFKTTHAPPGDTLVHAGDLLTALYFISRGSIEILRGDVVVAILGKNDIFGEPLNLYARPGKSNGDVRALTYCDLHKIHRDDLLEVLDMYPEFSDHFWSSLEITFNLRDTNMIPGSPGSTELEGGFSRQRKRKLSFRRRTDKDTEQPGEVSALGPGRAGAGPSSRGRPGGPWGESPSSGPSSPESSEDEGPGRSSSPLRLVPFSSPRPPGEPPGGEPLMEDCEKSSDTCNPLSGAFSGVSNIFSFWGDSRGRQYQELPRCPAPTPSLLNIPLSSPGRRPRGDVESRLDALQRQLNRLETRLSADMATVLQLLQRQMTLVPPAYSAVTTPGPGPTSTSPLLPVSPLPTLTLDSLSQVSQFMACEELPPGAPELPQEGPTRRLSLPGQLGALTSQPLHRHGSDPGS

[18] = target: Nav1.5 channel (Homo sapiens, UniProt Q14524); experiment: Nav1.5 electrophysiology assay (IonWorks HT, CHO cells); type: cell-based; details: at >100 μM
Sequence of Nav1.5 channel (Q14524 whole entry): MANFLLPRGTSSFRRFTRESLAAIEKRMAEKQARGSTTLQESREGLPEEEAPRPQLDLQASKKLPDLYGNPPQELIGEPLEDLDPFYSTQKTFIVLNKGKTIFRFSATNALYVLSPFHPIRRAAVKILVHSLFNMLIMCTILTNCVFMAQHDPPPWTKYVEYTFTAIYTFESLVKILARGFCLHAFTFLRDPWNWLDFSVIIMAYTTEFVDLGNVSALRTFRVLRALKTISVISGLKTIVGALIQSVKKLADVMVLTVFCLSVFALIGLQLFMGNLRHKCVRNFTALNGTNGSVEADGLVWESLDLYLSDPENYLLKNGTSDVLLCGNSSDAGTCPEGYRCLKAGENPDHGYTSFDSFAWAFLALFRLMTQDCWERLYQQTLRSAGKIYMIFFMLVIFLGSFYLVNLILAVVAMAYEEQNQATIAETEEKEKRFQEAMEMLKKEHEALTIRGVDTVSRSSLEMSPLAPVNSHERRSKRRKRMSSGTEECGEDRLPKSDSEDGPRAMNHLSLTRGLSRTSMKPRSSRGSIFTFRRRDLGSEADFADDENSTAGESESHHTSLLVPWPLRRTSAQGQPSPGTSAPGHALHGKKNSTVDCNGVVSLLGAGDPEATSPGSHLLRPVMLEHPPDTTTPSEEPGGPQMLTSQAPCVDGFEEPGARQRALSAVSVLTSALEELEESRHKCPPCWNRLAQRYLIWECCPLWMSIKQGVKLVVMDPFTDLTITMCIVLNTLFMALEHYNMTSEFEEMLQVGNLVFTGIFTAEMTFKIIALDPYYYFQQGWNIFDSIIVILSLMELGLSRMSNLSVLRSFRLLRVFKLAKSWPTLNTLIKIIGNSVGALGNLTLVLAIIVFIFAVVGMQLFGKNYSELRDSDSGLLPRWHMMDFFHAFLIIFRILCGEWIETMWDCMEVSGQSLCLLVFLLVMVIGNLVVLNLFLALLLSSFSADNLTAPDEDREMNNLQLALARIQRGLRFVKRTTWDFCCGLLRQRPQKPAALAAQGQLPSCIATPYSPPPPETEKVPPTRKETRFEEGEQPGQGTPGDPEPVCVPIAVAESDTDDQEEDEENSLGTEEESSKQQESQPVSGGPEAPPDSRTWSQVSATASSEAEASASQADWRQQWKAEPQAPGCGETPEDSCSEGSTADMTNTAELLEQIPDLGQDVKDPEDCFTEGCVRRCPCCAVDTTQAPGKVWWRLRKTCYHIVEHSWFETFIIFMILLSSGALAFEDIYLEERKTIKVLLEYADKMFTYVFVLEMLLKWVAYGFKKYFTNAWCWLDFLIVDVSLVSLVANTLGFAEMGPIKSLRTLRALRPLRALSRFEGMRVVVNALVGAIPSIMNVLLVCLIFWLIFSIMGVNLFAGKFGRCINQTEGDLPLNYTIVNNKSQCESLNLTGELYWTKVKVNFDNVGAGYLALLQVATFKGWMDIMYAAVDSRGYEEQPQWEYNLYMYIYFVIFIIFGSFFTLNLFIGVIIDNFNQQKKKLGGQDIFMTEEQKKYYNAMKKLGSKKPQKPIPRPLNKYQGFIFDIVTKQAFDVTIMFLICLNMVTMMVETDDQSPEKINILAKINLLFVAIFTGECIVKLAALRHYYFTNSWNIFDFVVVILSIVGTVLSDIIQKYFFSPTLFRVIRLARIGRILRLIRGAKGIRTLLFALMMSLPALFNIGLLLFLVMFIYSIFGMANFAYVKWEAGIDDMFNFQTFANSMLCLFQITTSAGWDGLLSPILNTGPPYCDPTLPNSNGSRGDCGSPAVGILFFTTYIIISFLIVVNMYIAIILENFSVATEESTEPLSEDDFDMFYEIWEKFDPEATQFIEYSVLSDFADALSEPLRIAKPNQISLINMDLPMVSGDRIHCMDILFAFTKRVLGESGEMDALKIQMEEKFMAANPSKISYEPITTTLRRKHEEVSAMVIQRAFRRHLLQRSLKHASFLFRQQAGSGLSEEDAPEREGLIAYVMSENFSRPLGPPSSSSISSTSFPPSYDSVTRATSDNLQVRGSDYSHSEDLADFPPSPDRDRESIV

[19] = Mouse micronucleus test; details: in vivo
[20] = target: CYP2D6 (Homo sapiens, UniProt P10635); experiment: Cytochrome P450 inhibition CYP2D6; type: in vitro ADME
Sequence of CYP2D6 (P10635 whole entry): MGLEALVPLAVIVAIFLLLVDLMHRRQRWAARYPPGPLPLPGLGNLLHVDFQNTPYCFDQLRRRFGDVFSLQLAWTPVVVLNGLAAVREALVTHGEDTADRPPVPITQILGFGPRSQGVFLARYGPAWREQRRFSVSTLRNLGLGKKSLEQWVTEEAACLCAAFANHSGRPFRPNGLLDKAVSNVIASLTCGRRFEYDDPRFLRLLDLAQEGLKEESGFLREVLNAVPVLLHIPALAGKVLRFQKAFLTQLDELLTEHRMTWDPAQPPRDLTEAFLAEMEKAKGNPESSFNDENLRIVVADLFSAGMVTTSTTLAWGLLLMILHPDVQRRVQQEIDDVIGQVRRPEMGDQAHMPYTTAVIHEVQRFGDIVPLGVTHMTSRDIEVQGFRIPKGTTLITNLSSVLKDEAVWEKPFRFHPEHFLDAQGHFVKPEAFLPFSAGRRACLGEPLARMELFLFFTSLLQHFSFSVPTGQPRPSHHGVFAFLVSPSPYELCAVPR

[21] = Single rising oral dose MTD study in rats; details: both sexes, Sprague-Dawley, rat, in vivo; single oral administration; read-out: maximum-tolerated dose (MTD)
[22] = In vitro intrinsic clearance, human liver microsomes (Chem Partners); type: in vitro ADME; details: human (H) liver microsomes
[23] = In vitro intrinsic clearance, rat liver microsomes (Chem Partners); type: in vitro ADME; details: rat (R) liver microsomes
[24] = tested on: African variant G6PD deficient human red blood cells (huRBC); details: 7 days post-treatment; E209 up to 50 mg kg^−1 day^−1 for 3 days; PQ 25 mg/kg/day for 3 days
[25] = rat, in vivo
[26] = in vivo; details: rat, iv, 1 mg/kg
[27] = in vitro; details: human, microsomes
[28] = tested on: major human CYP450s (all isoforms together); experiment: in vitro
[29] = target: CYP3A4 (Homo sapiens, UniProt P08684); experiment: biochemical
Sequence of CYP3A4 (P08684 whole entry): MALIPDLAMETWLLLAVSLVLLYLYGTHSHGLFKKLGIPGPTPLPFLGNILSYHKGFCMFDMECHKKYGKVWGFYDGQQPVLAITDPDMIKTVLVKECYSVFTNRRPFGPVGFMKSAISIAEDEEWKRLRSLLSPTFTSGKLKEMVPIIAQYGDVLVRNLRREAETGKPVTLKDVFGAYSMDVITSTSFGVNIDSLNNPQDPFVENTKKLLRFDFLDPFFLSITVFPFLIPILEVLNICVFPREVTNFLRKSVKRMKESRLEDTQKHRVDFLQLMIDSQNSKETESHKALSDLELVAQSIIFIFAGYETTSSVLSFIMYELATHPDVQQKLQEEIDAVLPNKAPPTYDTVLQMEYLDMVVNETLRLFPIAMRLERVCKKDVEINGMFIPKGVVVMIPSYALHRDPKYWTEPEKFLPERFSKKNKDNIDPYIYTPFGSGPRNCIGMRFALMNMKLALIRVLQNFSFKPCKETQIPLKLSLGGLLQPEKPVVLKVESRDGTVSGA

[30] = Dog PK, compartmental analysis
[31] = Mouse PK, compartmental analysis
[32] = target: CYP2C9 (Homo sapiens, UniProt P11712); experiment: Cytochrome P450 inhibition CYP2C9
Sequence of CYP2C9 (P11712 whole entry): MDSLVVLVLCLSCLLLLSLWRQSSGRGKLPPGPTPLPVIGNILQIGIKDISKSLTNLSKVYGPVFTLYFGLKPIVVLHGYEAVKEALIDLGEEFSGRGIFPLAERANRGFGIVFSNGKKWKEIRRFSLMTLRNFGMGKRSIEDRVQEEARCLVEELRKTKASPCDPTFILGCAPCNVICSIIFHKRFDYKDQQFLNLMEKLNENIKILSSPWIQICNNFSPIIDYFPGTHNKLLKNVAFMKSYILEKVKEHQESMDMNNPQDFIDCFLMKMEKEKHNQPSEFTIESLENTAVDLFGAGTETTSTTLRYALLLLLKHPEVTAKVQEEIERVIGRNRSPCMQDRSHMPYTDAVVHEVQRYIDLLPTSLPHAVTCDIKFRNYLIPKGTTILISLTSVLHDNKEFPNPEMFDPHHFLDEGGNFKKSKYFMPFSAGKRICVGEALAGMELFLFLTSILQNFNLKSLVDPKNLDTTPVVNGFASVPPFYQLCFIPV

[33] = Rat PK iv 1 mg/kg (Chem Partners); details: in vivo
[34] = tested on: P. berghei; experiment: Peters' standard 4-day suppressive test
[35] = Metabolic stability and metabolite profile in human liver microsomes; details: for Microsome-Predicted EH: human liver microsomes

## FC1CCN(CCOc2ccc(C3CCC4(CC3)OOC3(OO4)C4CC5CC(C4)CC3C5)cc2)CC1 (stereo not drawn) [Compound E209]
[1]
  IC50: 5.1 ± 0.81 nM
[2]
  In vivo (Pb) MSD (days) at 1 x 30 mg/kg: 26.3 days and 25.0 (15, 30, 30) (2 cures) days
[2]; in vivo
  cure rate: 66%
[3]
  IC50: 2850 nM
[4]
  IC50: 15.7 nM
[5]
  IC50: 10.5 nM
[6]; K1, FC27 (CQ S) lab line
  IC50: 20.7 nM
[6]; K1, K1 (CQ R) lab line
  IC50: 31.8 nM
[7]
  transmission-blocking activity (percentage of mosquitoes with no observed oocysts): ~60% and 90%
[7]; Anopheles stephensi, read-out: IC50 (reduction in oocyst mean intensity)
  IC50: 14.5 nM
[8]; 10 × IC50
  Lag phase: 0 h
  Log PRR: > 4.8
  Slope: −0.098
[8]; 10 × IC50, parasite clearance time
  PCT 99.9 %: < 24 h
[9]; Plasmodium falciparum, 72 h
  IC50: 8.71 nM
[9]
  IC50: 7.6 nM and 7.51 nM and 8.46 nM and 7.76 nM and 7.81 nM
[10]; single oral dose
  AUC ED90: 1.2 µg·h/mL
[10]; single oral dose 30 mg kg^−1
  parasite clearance: Complete parasite clearance; also recorded: maximum parasite clearance
[10]; single oral dose, calculated
  ED90: 11.6 mg/kg
[11]
  Absorption rate constant Ka: 0.31 ^† h^−1
  Central clearance, CL: 0.41 l^ h^−1 kg^−1
  Inter-compartmental clearance 1, Q1: 0.45 L/h/kg
  Inter-compartmental clearance 2, Q2: 0.020 L/h/kg
[12]; rat liver microsomes with NADPH, 60 minutes
  % Substrate Consumed: 54%
[12]; rat liver microsomes, substrate 1 µM
  Microsome-Predicted EH: 0.48
[12]; rat liver microsomes, substrate 1 µM, read-out: Degradation half-life
  half-life at 1 µM: 48 min
[12]; rat liver microsomes, substrate 1 µM, read-out: In vitro CLint
  microsomal CLint at 1 µM: 36 µL/min/mg
[12]; rat liver microsomes, substrate 5 µM
  Microsome-Predicted EH: 0.45
[12]; rat liver microsomes, substrate 5 µM, read-out: Degradation half-life
  half-life at 5 µM: 54 min
[12]; rat liver microsomes, substrate 5 µM, read-out: In vitro CLint
  microsomal CLint at 5 µM: 32 µL/min/mg
[13]; mouse liver microsomes with NADPH, 60 minutes
  % Substrate Consumed: 44%
[13]; mouse liver microsomes, substrate 1 µM
  Microsome-Predicted EH: 0.22
[13]; mouse liver microsomes, substrate 1 µM, read-out: Degradation half-life
  half-life at 1 µM: 132 min
[13]; mouse liver microsomes, substrate 1 µM, read-out: In vitro CLint
  microsomal CLint at 1 µM: 13 µL/min/mg
[13]; mouse liver microsomes, substrate 5 µM
  Microsome-Predicted EH: 0.25
[13]; mouse liver microsomes, substrate 5 µM, read-out: Degradation half-life
  half-life at 5 µM: 149 min
[13]; mouse liver microsomes, substrate 5 µM, read-out: In vitro CLint
  microsomal CLint at 5 µM: 17 µL/min/mg
[14]; n=1
  Microsome-Predicted EH: 0.38
[14]; n=1, read-out: Degradation half-life
  half-life at 1 µM: 173 min
[14]; n=1, read-out: In vitro CLint
  microsomal CLint at 1 µM: 10 µL/min/mg
[15]
  IC50: ~200 nM
[16]
  IC50: ~200 nM
[17]
  IC50: > 3.5 µM
[18]
  inhibitory activity: no inhibitory activity
[19]
  mouse micronucleus test result: negative
[20]
  IC50: > 20 µM
[21]
  MTD: 300 mg/kg
[22]
  CLint scaled: 58 mL/min/kg
[23]
  CLint scaled: 70 mL/min/kg
[24]
  loss of huRBC: did not show a significant drug-dependent loss of huRBC
[25]
  finding at 100 mg kg^−1: body weight loss
  tolerability: not tolerated
[26]
  half-life: 240 min
[27]
  microsomal CLint: 23 µL/min/mg
[28]
  IC50: > 20 µM
[29]
  IC50: > 20 µM
[30]; PO 5 mg kg^−1
  Absorption rate constant Ka: 0.33 h⁻¹
[30]; male, Beagle, plasma, oral, 5 mg kg^−1
  bioavailability: 40%
[30]; male, Beagle, plasma, other: intravenous and oral, fitted together
  clearance: 18.3 mL/min/kg
[31]; PO 10 mg kg^−1
  Absorption rate constant Ka: 0.79 h⁻¹
[31]; female, Swiss Outbred, plasma, oral, 10 mg kg^−1
  bioavailability: 82%
[31]; female, Swiss Outbred, plasma, other: intravenous and oral, fitted together
  clearance: 71.7 mL/min/kg
[32]
  IC50: > 20 µM
[33]
  clearance: 5.1 mL/min/kg
[34]; given orally, 4-day suppressive test
  parasite clearance: complete parasite clearance
[34]; oral, after three doses, P. berghei infected mice
  estimated ED50: 4 mg/kg
[35]; human liver microsomes with NADPH, 60 minutes
  % Substrate Consumed: 45%
[35]; substrate 1 µM
  Microsome-Predicted EH: 0.50
[35]; substrate 5 µM
  Microsome-Predicted EH: 0.48
[35]; human, liver microsomes
  half-life at 1 µM: 68 min
  half-life at 5 µM: 76 min
  microsomal CLint at 1 µM: 25 µL/min/mg
